Data from patent publication US8815535B2, “Disk diffusion assay for oritavancin” (The Medicines Company, priority 2011, dated 2014).
Where two headings read alike, the source gives them in different places.

Key:
VISA Mu50 (ATCC 700699) = assay: Disk diffusion assay (zone of inhibition); format: cell-based, Staphylococcus aureus; details: Staphylococcus aureus, Mu50; for zone of inhibition at 200 µg/disc: 200 μg in 4% P80/Span 80 (1:1)
Text: The study was designed to identify conditions that improve oritavancin diffusion in agar and consequently yield a zone diameter ≧15 mm for the CLSI quality control strain MSSA ATCC 25923. Excipients that increased the disk diffusion of oritavancin in agar relative to disks containing only oritavancin were identified and selected for further study. […] A prediffusion step at room temperature was introduced to maximize oritavancin diffusion prior to initiation of bacterial growth. […] Plates were then incubated overnight at 37° C. Zone diameters around the disks in which bacterial growth was inhibited were measured with a ruler and reported in millimeters.
(§1) Ethanol-sterilized Whatman paper disks (6 mm diameter) were allowed to dry then impregnated with 20 microliters of oritavancin solution containing total amounts ranging from 90 to 360 micrograms. Disks were allowed to dry at room temperature for various times prior to use.
Bacterial suspensions were prepared and adjusted to an optical density of 0.1 at 600 nm. Standard cation-adjusted Mueller Hinton agar plates (90 mm diameter) were seeded with bacterial suspensions by initially swabbing the center of plate then moving outward towards the edge. The plate was swabbed a second time, perpendicular to the orientation of the first swab. […] After 3 hours, two additional disks were placed on the other half of the plate then the plate was incubated overnight at 37° C. Zone diameters were measured with a ruler and reported in millimeters.
(§2) Oritavancin powder was dissolved in freshly-prepared solutions of the indicated excipients at concentrations of 0.625, 1.25, 2.5, 5, and 10 mg/ml (adjusted for potency based on lot 875561L00 purity of 83.1%) by vortexing for a minimum of 5 minutes. Oritavancin solutions in the various excipients, while not visually clear, were free from any apparent particulates as assessed visually. Sterile Oxoid blank disks were impregnated with 20 μl of these oritavancin solutions, resulting in oritavancin disk loads ranging from 12.5 to 200 μg. Unless indicated otherwise, disks were allowed to dry overnight at room temperature prior to use.
(§3) Bacterial suspensions from isolated colonies on overnight cation-adjusted Mueller Hinton agar plates were prepared in sterile saline and adjusted to an optical density of 0.1 at 600 nm Standard cation-adjusted Mueller Hinton agar plates (90 mm diameter) were seeded with bacterial suspensions by initially swabbing the center of plate then moving outward. Swabbing was continued at a right angle and then at an oblique angle to the first and second swabs. Disks were placed upon the seeded plates with sterile forceps. Plates were then incubated overnight at 37° C. and inhibition zone diameters were measured with a ruler and reported in millimeters.

MRSA ATCC 33591 = assay: Disk diffusion assay (zone of inhibition); format: cell-based; details: Staphylococcus aureus, 25 μg (1.25 mg/ml) in 4% P80/Span 80 (1:1), dried overnight, read-out: Inhibition zone diameter
Experimental: as §2, §3

MRSA T998528 = assay: Disk diffusion assay (zone of inhibition); format: cell-based; details: Staphylococcus aureus, 20 μl of 1.25 mg/ml in 4% P80/Span 80 (1:1), calcium alginate swabs, dried overnight, duplicate, read-out: Inhibition zone diameter
Experimental: as §2, §3

MRSA T998608 = assay: Disk diffusion assay (zone of inhibition); format: cell-based; details: Staphylococcus aureus, 20 μl of 1.25 mg/ml in 4% P80/Span 80 (1:1), calcium alginate swabs, dried overnight, duplicate, read-out: Inhibition zone diameter
Experimental: as §2, §3

MRSA U784439 = assay: Disk diffusion assay (zone of inhibition); format: cell-based; details: Staphylococcus aureus, 20 μl of 1.25 mg/ml in 4% P80/Span 80 (1:1), calcium alginate swabs, dried overnight, duplicate, read-out: Inhibition zone diameter
Experimental: as §2, §3

MRSA V288615 = assay: Disk diffusion assay (zone of inhibition); format: cell-based; details: Staphylococcus aureus, 20 μl of 1.25 mg/ml in 4% P80/Span 80 (1:1), calcium alginate swabs, dried overnight, duplicate, read-out: Inhibition zone diameter
Experimental: as §2, §3

MRSA V406957 = assay: Disk diffusion assay (zone of inhibition); format: cell-based; details: Staphylococcus aureus, 20 μl of 1.25 mg/ml in 4% P80/Span 80 (1:1), calcium alginate swabs, dried overnight, duplicate, read-out: Inhibition zone diameter
Experimental: as §2, §3

MSSA Q141066 = assay: Disk diffusion assay (zone of inhibition); format: cell-based; details: Staphylococcus aureus, 20 μl of 1.25 mg/ml in 4% P80/Span 80 (1:1), calcium alginate swabs, dried overnight, duplicate, read-out: Inhibition zone diameter
Experimental: as §2, §3

MSSA T759545 = assay: Disk diffusion assay (zone of inhibition); format: cell-based; details: Staphylococcus aureus, 20 μl of 1.25 mg/ml in 4% P80/Span 80 (1:1), calcium alginate swabs, dried overnight, duplicate, read-out: Inhibition zone diameter
Experimental: as §2, §3

MSSA U148267 = assay: Disk diffusion assay (zone of inhibition); format: cell-based; details: Staphylococcus aureus, 20 μl of 1.25 mg/ml in 4% P80/Span 80 (1:1), calcium alginate swabs, dried overnight, duplicate, read-out: Inhibition zone diameter
Experimental: as §2, §3

MSSA V406985 = assay: Disk diffusion assay (zone of inhibition); format: cell-based; details: Staphylococcus aureus, 20 μl of 1.25 mg/ml in 4% P80/Span 80 (1:1), calcium alginate swabs, dried overnight, duplicate, read-out: Inhibition zone diameter
Experimental: as §2, §3

S. aureus isolates = assay: Disk diffusion assay, panel of isolates; format: cell-based, Staphylococcus aureus
Text: The study was designed to identify conditions that improve oritavancin diffusion in agar and consequently yield a zone diameter ≧15 mm for the CLSI quality control strain MSSA ATCC 25923. Excipients that increased the disk diffusion of oritavancin in agar relative to disks containing only oritavancin were identified and selected for further study. […] A prediffusion step at room temperature was introduced to maximize oritavancin diffusion prior to initiation of bacterial growth. In this step, the antimicrobial disks were placed on agar plates seeded with a bacterial isolate and incubated at room temperature for 3 hours. Plates were then incubated overnight at 37° C. Zone diameters around the disks in which bacterial growth was inhibited were measured with a ruler and reported in millimeters.
as §1
Bacterial suspensions were prepared and adjusted to an optical density of 0.1 at 600 nm. Standard cation-adjusted Mueller Hinton agar plates (90 mm diameter) were seeded with bacterial suspensions by initially swabbing the center of plate then moving outward towards the edge. The plate was swabbed a second time, perpendicular to the orientation of the first swab. To assess the impact of prediffusion on diameter of inhibition zones, two disks were immediately placed on one half of the plate and the plate was incubated for 3 hours at room temperature. After 3 hours, two additional disks were placed on the other half of the plate then the plate was incubated overnight at 37° C. Zone diameters were measured with a ruler and reported in millimeters.
as §2, §3

hVISA NRS2 = assay: Disk diffusion assay (zone of inhibition); format: cell-based; details: Staphylococcus aureus, Oxoid disks, 20 μl of 18 mg/ml oritavancin in 5% P80, stored 30 days at room temperature, prediffusion 6 hours at 4° C., read-out: Inhibition zone diameter

## CN[C@H](CC(C)C)C(=O)N[C@H]1C(=O)N[C@@H](CC(N)=O)C(=O)N[C@H]2C(=O)N[C@H]3C(=O)N[C@H](C(=O)N[C@H](C(=O)O)c4cc(O)cc(O)c4-c4cc3ccc4O)[C@H](O[C@H]3C[C@](C)(N)[C@@H](O)[C@H](C)O3)c3ccc(c(Cl)c3)Oc3cc2cc(c3O[C@@H]2O[C@H](CO)[C@@H](O)[C@H](O)[C@H]2O[C@H]2C[C@](C)(NCc3ccc(-c4ccc(Cl)cc4)cc3)[C@@H](O)[C@H](C)O2)Oc2ccc(cc2Cl)[C@H]1O [oritavancin, N-(4-(4-chlorophenyl)benzyl)A82846B]
VISA Mu50 (ATCC 700699); 100 μg in 4% P80/Span 80 (1:1), cotton swab, dried overnight, estimate of diameter
  zone of inhibition at 100 µg/disc: 11 mm
VISA Mu50 (ATCC 700699); calcium alginate swab, dried overnight, read-out: Inhibition zone diameter
  zone of inhibition at 200 µg/disc: 8 mm
VISA Mu50 (ATCC 700699); cotton swab, dried overnight, estimate of diameter
  zone of inhibition at 200 µg/disc: 10 mm
VISA Mu50 (ATCC 700699); 20 μl of 1.25 mg/ml oritavancin in 1% poly(ethylene glycol) sorbitol hexaoleate, read-out: Inhibition zone diameter
  zone of inhibition at 1250 µg/mL: 8 mm
VISA Mu50 (ATCC 700699); 20 μl of 1.25 mg/ml oritavancin in 5% Merpol SE, read-out: Inhibition zone diameter
  zone of inhibition at 1250 µg/mL: 9 mm
MRSA ATCC 33591
  zone of inhibition at 25 µg/disc: 22 mm
MRSA T998528
  zone of inhibition at 1250 µg/mL: 21 mm
MRSA T998608
  zone of inhibition at 1250 µg/mL: 22 mm
MRSA U784439
  zone of inhibition at 1250 µg/mL: 20 mm
MRSA V288615
  zone of inhibition at 1250 µg/mL: 23 mm
MRSA V406957
  zone of inhibition at 1250 µg/mL: 21 mm
MSSA Q141066
  zone of inhibition at 1250 µg/mL: 20 mm
MSSA T759545
  zone of inhibition at 1250 µg/mL: 22 mm
MSSA U148267
  zone of inhibition at 1250 µg/mL: 21 mm
MSSA V406985
  zone of inhibition at 1250 µg/mL: 24 mm
S. aureus isolates; 360 μg in 5% P80
  Zone diameter smaller for the two reduced-susceptibility isolates compared to MSSA and MRSA isolates exhibiting the same BMD MICs: approximately 2 mm
S. aureus isolates; MSSA and MRSA strains, 360 μg in 5% P80
  Average increase of zone diameter by prediffusion: approximately 2.5 mm
S. aureus isolates; Staphylococcus aureus, 19 wild-type clinical isolates, 20 μl of 1.25 mg/ml in 4% P80/Span 80 (1:1), calcium alginate swabs, read-out: Inhibition zone diameters
  zone of inhibition at 1250 µg/mL: 20 to 24 mm
S. aureus isolates; VISA and oritavancin reduced-susceptibility isolates, 360 μg in 5% P80
  Average increase of zone diameter by prediffusion: approximately 1.1 mm
S. aureus isolates; many S. aureus strains, different combinations of the alterations to the traditional assay
  Zone diameters: > 15 mm
hVISA NRS2
  zone of inhibition at 18000 µg/mL: 16.5 mm
